Several values for one entry are separate records, joined by “and”; a condition that tells them apart may be missing. Equal values may be shown once. Toxic doses and inconclusive results are not listed. The calls were made as follows: active = survival T/C of 150% or more; inactive = T/C below 125% in these data.
Test system: P388 leukemia ip, CD2F1 mice, survival T/C
Test: NCI In Vivo Anticancer Drug Screen. Data for tumor model P388 Leukemia (intraperitoneal) in CD2F1 (CDF1) mice
Details: endpoint: median survival time, higher = longer survival
Procedure, shortened: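 Mice carrying the transplanted tumor received test compound or vehicle. Survival was recorded in each group, and the value is the treated-group measurement divided by that of the vehicle-treated control group.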

[1] = dose: 60.0 mg/kg/injection, schedule: Q01DX005 (ip), vehicle: saline with Tween-80
[2] = dose: 50.0 mg/kg/injection, schedule: Q01DX005 (ip), vehicle: saline
[3] = dose: 100.0 mg/kg/injection, schedule: Q01DX005 (ip), vehicle: saline
[4] = dose: 200.0 mg/kg/injection, schedule: Q01DX005 (ip), vehicle: saline
[5] = dose: 6.25 mg/kg/injection, schedule: Q01DX009 (ip), vehicle: Klucel (hydroxypropylcellulose) (HPC)
[6] = dose: 12.5 mg/kg/injection, schedule: Q01DX009 (ip), vehicle: Klucel (hydroxypropylcellulose) (HPC)
[7] = dose: 12.5 mg/kg/injection, schedule: Q01DX009 (ip), vehicle: saline
[8] = dose: 120.0 mg/kg/injection, schedule: Q01DX005 (ip), vehicle: saline with Tween-80
[9] = dose: 50.0 mg/kg/injection, schedule: Q01DX005 (ip), vehicle: Klucel (hydroxypropylcellulose) (HPC)
[10] = dose: 100.0 mg/kg/injection, schedule: Q01DX005 (ip), vehicle: Klucel (hydroxypropylcellulose) (HPC)
[11] = dose: 200.0 mg/kg/injection, schedule: Q01DX005 (ip), vehicle: Klucel (hydroxypropylcellulose) (HPC)
[12] = dose: 25.0 mg/kg/injection, schedule: Q01DX009 (ip), vehicle: Klucel (hydroxypropylcellulose) (HPC)
[13] = dose: 50.0 mg/kg/injection, schedule: Q01DX009 (ip), vehicle: Klucel (hydroxypropylcellulose) (HPC)
[14] = dose: 100.0 mg/kg/injection, schedule: Q01DX009 (ip), vehicle: Klucel (hydroxypropylcellulose) (HPC)
[15] = dose: 200.0 mg/kg/injection, schedule: Q01DX009 (ip), vehicle: Klucel (hydroxypropylcellulose) (HPC)
[16] = dose: 400.0 mg/kg/injection, schedule: Q01DX009 (ip), vehicle: Klucel (hydroxypropylcellulose) (HPC)
[17] = dose: 25.0 mg/kg/injection, schedule: Q01DX009 (ip), vehicle: saline
[18] = dose: 50.0 mg/kg/injection, schedule: Q01DX009 (ip), vehicle: saline
[19] = dose: 100.0 mg/kg/injection, schedule: Q04DX003 (ip), vehicle: saline
[20] = dose: 200.0 mg/kg/injection, schedule: Q04DX003 (ip), vehicle: saline
[21] = dose: 400.0 mg/kg/injection, schedule: Q04DX003 (ip), vehicle: saline

Measured: T/C

S=C1N(c2ccc(Cl)cc2)C2=C(N=Nc3cc(Cl)ccc3Cl)C(=Nc3ccccc3S2)N1c1ccccn1
inactive: dose: 15.0 mg/kg/injection, schedule: Q01DX005 (ip), vehicle: saline with Tween-80 100 % of control | dose: 30.0 mg/kg/injection, schedule: Q01DX005 (ip), vehicle: saline with Tween-80 110 % of control | [1] 106 % of control and 110 % of control

CCCCNC(c1ccc(N(CC)CC)cc1)C(Cl)(Cl)Cl (stereo not drawn)
inactive: [2] 105 % of control and 106 % of control | dose: 50.0 mg/kg/injection, schedule: Q01DX005 (ip), vehicle: water 100 % of control | [3] 108 % of control and 116 % of control | dose: 100.0 mg/kg/injection, schedule: Q01DX005 (ip), vehicle: water 93 % of control | [4] 110 % of control

Cl/C(=N\Nc1ccccc1)c1ccccc1
inactive: dose: 3.13 mg/kg/injection, schedule: Q01DX009 (ip), vehicle: Klucel (hydroxypropylcellulose) (HPC) 100 % of control | [5] 106 % of control | dose: 7.5 mg/kg/injection, schedule: Q01DX001 (ip), vehicle: saline sonified 109 % of control | [6] 104 % of control | dose: 15.0 mg/kg/injection, schedule: Q01DX001 (ip), vehicle: saline sonified 109 % of control | dose: 30.0 mg/kg/injection, schedule: Q01DX001 (ip), vehicle: saline sonified 109 % of control

O=C(CN1CCCC1)Nc1nc(-c2ccc(Cl)cc2)cs1
inactive: dose: 50.0 mg/kg/injection, schedule: Q01DX005 (ip), vehicle: saline with Tween-80 96 % of control | dose: 100.0 mg/kg/injection, schedule: Q01DX005 (ip), vehicle: saline with Tween-80 100 % of control | dose: 200.0 mg/kg/injection, schedule: Q01DX005 (ip), vehicle: saline with Tween-80 91 % of control

COC(=O)C1CCCC(C(=O)O)C1 (stereo not drawn)
inactive: dose: 100.0 mg/kg/injection, schedule: Q01DX002 (ip), vehicle: saline with Tween-80 102 % of control | dose: 200.0 mg/kg/injection, schedule: Q01DX002 (ip), vehicle: saline with Tween-80 102 % of control | dose: 400.0 mg/kg/injection, schedule: Q01DX002 (ip), vehicle: saline with Tween-80 117 % of control

CSC(=S)N/N=C\C(C)=N/N=C(N)N
inactive: dose: 3.12 mg/kg/injection, schedule: Q01DX009 (ip), vehicle: saline 101 % of control | dose: 6.25 mg/kg/injection, schedule: Q01DX009 (ip), vehicle: saline 101 % of control | [7] 107 % of control

O=S(=O)(c1cccc(C(F)(F)F)c1)N(CCCCN(S(=O)(=O)c1cccc(C(F)(F)F)c1)S(=O)(=O)c1cccc(C(F)(F)F)c1)S(=O)(=O)c1cccc(C(F)(F)F)c1
inactive: [1] 97 % of control | [8] 93 % of control | dose: 240.0 mg/kg/injection, schedule: Q01DX005 (ip), vehicle: saline with Tween-80 90 % of control

O=S(=O)(O)C1=CC(=N/Cl)/C=CC/1=N\Cl
inactive: [2] 114 % of control and 116 % of control and 119 % of control | [3] 104 % of control and 121 % of control and 124 % of control | [4] 107 % of control and 116 % of control and 121 % of control | dose: 400.0 mg/kg/injection, schedule: Q01DX005 (ip), vehicle: saline 106 % of control

S=C(S)NC1CCN(Cc2ccccc2)CC1
inactive: [9] 107 % of control | [10] 102 % of control | [11] 96 % of control

c1ccc(N/N=C2/c3ccccc3CC23OC3c2ccccc2)cc1 (stereo not drawn)
inactive: [12] 90 % of control | [13] 90 % of control | [14] 88 % of control | [15] 87 % of control | [16] 88 % of control

CCCN(C)N=Nc1ccccc1C(=O)O
inactive: dose: 3.12 mg/kg/injection, schedule: Q01DX009 (ip), vehicle: Klucel (hydroxypropylcellulose) (HPC) 111 % of control | [5] 91 % of control | [6] 110 % of control | [12] 110 % of control | [13] 105 % of control

COc1cc2cnc3c4cc(OC)c(OC)cc4c(O)cc3c2cc1OC
inactive: dose: 3.12 mg/kg/injection, schedule: Q01DX005 (ip), vehicle: Klucel (hydroxypropylcellulose) (HPC) 98 % of control | dose: 6.25 mg/kg/injection, schedule: Q01DX005 (ip), vehicle: Klucel (hydroxypropylcellulose) (HPC) 106 % of control | dose: 12.5 mg/kg/injection, schedule: Q01DX005 (ip), vehicle: Klucel (hydroxypropylcellulose) (HPC) 98 % of control

Cc1cc(=O)oc2cc(NCS(=O)(=O)O)ccc12
inactive: [2] 100 % of control | [3] 98 % of control | [4] 97 % of control

CCCCC[CH2][GeH]([CH2]CCCCC)[O][GeH]([CH2]CCCCC)[CH2]CCCCC
inactive: [7] 100 % of control and 97 % of control | [17] 104 % of control and 90 % of control | [18] 100 % of control and 101 % of control and 106 % of control | dose: 100.0 mg/kg/injection, schedule: Q01DX009 (ip), vehicle: saline 120 % of control and 97 % of control

Cn1c(=O)[nH]c(N)c(C(=O)CCl)c1=O
inactive: [1] 97 % of control | [8] 105 % of control

CCCSC(=S)Nc1nc2ccc(C)cc2s1
inactive: [19] 100 % of control | [20] 93 % of control | [21] 101 % of control

COc1cccc(CCCC(=O)O)c1
inactive: [14] 100 % of control | [15] 100 % of control | [16] 104 % of control

C[CH2][Sn]([CH2]C)([O]c1cccccc1=O)[O]c1cccccc1=O
inactive: dose: 100.0 mg/kg/injection, schedule: Q01DX001 (ip), vehicle: Klucel (hydroxypropylcellulose) (HPC) 116 % of control | dose: 200.0 mg/kg/injection, schedule: Q01DX001 (ip), vehicle: Klucel (hydroxypropylcellulose) (HPC) 110 % of control | dose: 400.0 mg/kg/injection, schedule: Q01DX001 (ip), vehicle: Klucel (hydroxypropylcellulose) (HPC) 110 % of control

CCOc1ccc(C(C)c2cc3c(cc2OCC)OCO3)c(C)c1 (stereo not drawn)
inactive: [9] 109 % of control | [10] 103 % of control | [11] 112 % of control

O=C1c2cc3ccccc3cc2NC(O)c2cccn21 (stereo not drawn)
inactive: dose: 0.1 mg/kg/injection, schedule: Q01DX005 (ip), vehicle: water 96 % of control | dose: 0.2 mg/kg/injection, schedule: Q01DX005 (ip), vehicle: water 91 % of control | dose: 0.4 mg/kg/injection, schedule: Q01DX005 (ip), vehicle: water 100 % of control | dose: 0.8 mg/kg/injection, schedule: Q01DX005 (ip), vehicle: water 107 % of control | dose: 1.6 mg/kg/injection, schedule: Q01DX005 (ip), vehicle: water 116 % of control | dose: 5.0 mg/kg/injection, schedule: Q01DX005 (ip), vehicle: distilled water + Tween-80 100 % of control | dose: 10.0 mg/kg/injection, schedule: Q01DX005 (ip), vehicle: distilled water + Tween-80 107 % of control | dose: 20.0 mg/kg/injection, schedule: Q01DX005 (ip), vehicle: distilled water + Tween-80 100 % of control | dose: 40.0 mg/kg/injection, schedule: Q01DX005 (ip), vehicle: distilled water + Tween-80 99 % of control | dose: 80.0 mg/kg/injection, schedule: Q01DX005 (ip), vehicle: distilled water + Tween-80 101 % of control

COc1cccc(-c2cc(C(=O)O)c3cc4ccccc4cc3n2)c1OC
inactive: [13] 100 % of control | [14] 101 % of control | [15] 100 % of control

COCC(=O)c1ccc(C#N)cc1
inactive: [19] 100 % of control | [20] 100 % of control | [21] 100 % of control

CC1COS(=O)(=O)C1 (stereo not drawn)
inactive: [17] 102 % of control | [18] 101 % of control

O=C1CC(c2cccc(S(=O)(=O)O)c2)=NN1c1ccc([N+](=O)[O-])cn1
inactive: [19] 108 % of control | [20] 100 % of control | [21] 106 % of control

From PubChem BioAssay AID330 (DTP/NCI, 2004)
